Reference: publication PMC7034070, “Synthesis, anti-inflammatory, cytotoxic, and COX-1/2 inhibitory activities of cyclic imides bearing 3-benzenesulfonamide, oxime, and β-phenylalanine scaffolds: a molecular docking study” (Journal of Enzyme Inhibition and Medicinal Chemistry, 2020)
Where “and” joins values, the source holds several entries; their conditions need not be identical. Equal entries are not always repeated. Values belong to the compound of their own block, whether it stands above or below them.

Columns and labels:
59 cancer cell lines = experiment: full NCI 59 cell line panel assay, single dose; assay type: cell-based; settings: one dose 10.0 μM, 59 cell lines
COX-2 = target: T1, COX-2 (Ovis aries, UniProt P79208); experiment: colorimetric COX (ovine) inhibitor screening assay kit; assay type: biochemical; settings: for SI, selectivity index (COX-1 IC50/COX-2 IC50): ovine COX-1/COX-2; for IC50: ovine COX-2, mean of two determinations
T1 construct: purchased Cayman Chemicals Inc., Ann Arbour, MI
T1 sequence (P79208 17-603): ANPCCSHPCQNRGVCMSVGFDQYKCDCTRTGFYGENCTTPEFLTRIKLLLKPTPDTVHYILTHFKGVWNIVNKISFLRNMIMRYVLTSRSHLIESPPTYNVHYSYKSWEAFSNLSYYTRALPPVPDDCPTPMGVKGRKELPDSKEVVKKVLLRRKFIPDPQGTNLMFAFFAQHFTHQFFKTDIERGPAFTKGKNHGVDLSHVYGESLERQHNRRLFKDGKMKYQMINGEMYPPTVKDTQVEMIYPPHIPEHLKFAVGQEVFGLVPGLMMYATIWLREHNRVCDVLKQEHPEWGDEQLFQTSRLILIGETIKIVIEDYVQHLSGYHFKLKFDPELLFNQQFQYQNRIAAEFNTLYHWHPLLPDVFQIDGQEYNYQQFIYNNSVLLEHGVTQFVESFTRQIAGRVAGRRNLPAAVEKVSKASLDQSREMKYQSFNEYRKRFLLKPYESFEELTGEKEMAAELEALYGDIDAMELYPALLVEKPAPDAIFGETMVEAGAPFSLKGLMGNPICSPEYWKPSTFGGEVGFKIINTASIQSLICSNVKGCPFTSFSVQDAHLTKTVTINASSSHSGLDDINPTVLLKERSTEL
Excerpt: (§1) To determine the relative ability of the test compounds and reference drugs to inhibit COX-1/COX-2 isozymes, we used the colorimetric COX (ovine) inhibitor screening assay kit (Cayman Chemicals Inc., Ann Arbour, MI), according to the manufacturer’s instructions[3]^,[10]^,[11]^,[20].

COX-1 = target: T2, COX-1 (Ovis aries, UniProt P05979); experiment: as above; assay type: biochemical; settings: ovine COX-1, mean of two determinations
T2 construct: purchased Cayman Chemicals Inc., Ann Arbour, MI
T2 sequence (P05979 25-600): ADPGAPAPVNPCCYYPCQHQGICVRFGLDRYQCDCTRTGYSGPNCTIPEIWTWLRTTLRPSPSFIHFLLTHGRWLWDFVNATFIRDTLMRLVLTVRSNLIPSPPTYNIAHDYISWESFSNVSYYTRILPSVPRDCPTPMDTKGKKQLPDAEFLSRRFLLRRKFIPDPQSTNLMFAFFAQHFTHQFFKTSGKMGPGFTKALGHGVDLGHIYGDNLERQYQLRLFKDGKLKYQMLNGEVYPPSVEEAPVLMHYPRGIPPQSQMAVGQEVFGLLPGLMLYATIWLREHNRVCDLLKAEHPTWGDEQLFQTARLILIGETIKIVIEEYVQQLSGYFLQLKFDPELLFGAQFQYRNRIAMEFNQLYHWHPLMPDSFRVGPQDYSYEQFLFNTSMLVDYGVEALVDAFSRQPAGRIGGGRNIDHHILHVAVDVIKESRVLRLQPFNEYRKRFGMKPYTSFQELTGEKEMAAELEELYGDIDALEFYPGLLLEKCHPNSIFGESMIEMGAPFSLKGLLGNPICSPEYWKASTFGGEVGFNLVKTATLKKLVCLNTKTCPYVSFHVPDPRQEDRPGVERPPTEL
Excerpt: as §1

[1] = system: carrageenan induced rat paw oedema; experiment: rat carrageenan-induced foot paw oedema model; assay type: in vivo; settings: for Mean % increase in paw weight ± SEM / % Inhibition of paw oedema from control group: 2 h after carrageenan; for Mean % increase in paw weight ± SEM: control group 165.6 ± 1.6; for % Inhibition of paw oedema from control group: single dose screen (Table 1)
Description: Anti-inflammatory assessment of the newly synthesised compounds was carried out using an in vivo rat carrageenan-induced foot paw oedema model, as reported previously[16]^,[17].

CAKI-1 (Renal Cancer) = experiment: NCI 59 cell line panel, single dose; assay type: cell-based; settings: CAKI-1, one dose 10.0 μM
[2] = system: NCI-H522 (NSC Lung Cancer); experiment: NCI 59 cell line panel, single dose; assay type: cell-based; settings: NCI-H522, one dose 10.0 μM
UO-31 (Renal Cancer) = experiment: NCI 59 cell line panel, single dose; assay type: cell-based; settings: UO-31, one dose 10.0 μM
mice = experiment: Ulcerogenicity measurement; assay type: in vivo
Description: Ulcerogenicity was evaluated according to a previously reported method[6]^a,[17]^,[18]. The number and total length of the ulcers for each animal were measured and their averages were calculated and used as the ulcer indices.

TK-10 (Renal Cancer) = experiment: NCI 59 cell line panel, single dose; assay type: cell-based; settings: TK-10, one dose 10.0 μM
HL-60(TB) (Leukaemia) = experiment: NCI 59 cell line panel, single dose; assay type: cell-based; settings: one dose 10.0 μM
PC-3 (Prostate Cancer) = experiment: NCI 59 cell line panel, single dose; assay type: cell-based; settings: PC-3, one dose 10.0 μM
HOP-92 (NSC Lung Cancer) = experiment: NCI 59 cell line panel, single dose; assay type: cell-based; settings: HOP-92, one dose 10.0 μM
[3] = system: NCI-H322M (NSC Lung Cancer); experiment: NCI 59 cell line panel, single dose; assay type: cell-based; settings: one dose 10.0 μM
[4] = system: NCI-H23 (NSC Lung Cancer); experiment: NCI 59 cell line panel, single dose; settings: NCI-H23, one dose 10.0 μM
A498 (Renal Cancer) = experiment: NCI 59 cell line panel, single dose; settings: A498, one dose 10.0 μM
HCT-116 (Colon Cancer) = experiment: NCI 59 cell line panel, single dose; settings: HCT-116, one dose 10.0 μM
T-47D (Breast Cancer) = experiment: NCI 59 cell line panel, single dose; settings: one dose 10.0 μM
MOLT-4 (Leukaemia) = experiment: NCI 59 cell line panel, single dose; settings: MOLT-4, one dose 10.0 μM
PRMI-8226 (Leukaemia) = experiment: NCI 59 cell line panel, single dose; settings: PRMI-8226, one dose 10.0 μM
[5] = system: MDA-MB-468 (Breast Cancer); experiment: NCI 59 cell line panel, single dose; settings: MDA-MB-468, one dose 10.0 μM
SF-539 (CNS Cancer) = experiment: NCI 59 cell line panel, single dose; settings: SF-539, one dose 10.0 μM
U251 (CNS Cancer) = experiment: NCI 59 cell line panel, single dose; settings: U251, one dose 10.0 μM
SF-295 (CNS Cancer) = experiment: NCI 59 cell line panel, single dose; settings: SF-295, one dose 10.0 μM
HT29 (Colon Cancer) = experiment: NCI 59 cell line panel, single dose; settings: HT29, one dose 10.0 μM
DU-145 (Prostate Cancer) = experiment: NCI 59 cell line panel, single dose; settings: DU-145, one dose 10.0 μM
EKVX (NSC Lung Cancer) = experiment: NCI 59 cell line panel, single dose; settings: one dose 10.0 μM
HCT-15 (Colon Cancer) = experiment: NCI 59 cell line panel, single dose; settings: HCT-15, one dose 10.0 μM
[6] = system: MDA-MB-231/ATCC (Breast Cancer); experiment: NCI 59 cell line panel, single dose; settings: one dose 10.0 μM
[7] = system: NCI-H226 (NSC Lung Cancer); experiment: NCI 59 cell line panel, single dose; settings: NCI-H226, one dose 10.0 μM
SR (Leukaemia) = experiment: NCI 59 cell line panel, single dose; settings: one dose 10.0 μM
LOX IMVI (Melanoma) = experiment: NCI 59 cell line panel, single dose; settings: one dose 10.0 μM

SI, selectivity index (COX-1 IC50/COX-2 IC50) (COX-2): >192.3
IC50 (COX-2): 260 nM
IC50 (COX-1): > 50 µM
melting point: 195 to 197 °C
SMILES: NS(=O)(=O)c1cccc(N2C(=O)CCC2=O)c1 [Compound 2, 3-(2,5-Dioxopyrrolidin-1-yl)benzenesulfonamide]
PCE (positive cytotoxic effect: cell lines with growth inhibition >10% / total number of cell lines) (59 cancer cell lines): 3/59
Mean % increase in paw weight ± SEM [1]: 53.2 ± 0.4%
% Inhibition of paw oedema from control group [1]: 71.2% and 71.2 ± 0.5%
GI% (CAKI-1 (Renal Cancer)): 12%
GI% [2]: 12%
GI% (UO-31 (Renal Cancer)): 13%

SI, selectivity index (COX-1 IC50/COX-2 IC50) (COX-2): >277.8
IC50 (COX-2): 180 nM
IC50 (COX-1): > 50 µM
SMILES: NS(=O)(=O)c1cccc(N2C(=O)c3ccccc3C2=O)c1 [Compound 4]
PCE (positive cytotoxic effect: cell lines with growth inhibition >10% / total number of cell lines) (59 cancer cell lines): 3/59
Average number of ulcers (mice; mice): 6
Mean sum of lengths of elongated ulcer (mice; mice, ± SEM): 4.7 ± 0.54 mm
level of ulcerogenic activity (in words) (mice; relative to diclofenac and celecoxib): ulcerogenic level similar to celecoxib and less than that of diclofenac
GI% (TK-10 (Renal Cancer)): 11%
GI% (HL-60(TB) (Leukaemia)): 18%
Mean % increase in paw weight ± SEM [1]: 41.0 ± 0.2%
% Inhibition of paw oedema from control group [1]: 77.8% and 77.8 ± 0.6%
Percentage inhibition of paw oedema from control group ([1]; dose 45 mg/kg): 65.0%
Percentage inhibition of paw oedema from control group ([1]; dose 65 mg/kg): 77.8%
Percentage inhibition of paw oedema from control group ([1]; dose 80 mg/kg): 86.2%
ED50 ([1]; from three graded doses (45, 65, 80 mg/kg)): 45.3 mg/kg
GI% [2]: 16.0%

SI, selectivity index (COX-1 IC50/COX-2 IC50) (COX-2): >55.6
IC50 (COX-2): 900 nM
IC50 (COX-1): > 50 µM
melting point: 225 to 226 °C
SMILES: Cc1ccc2c(c1)C(=O)N(c1cccc(S(N)(=O)=O)c1)C2=O [Compound 5, 3-(5-Methyl-1,3-dioxoisoindolin-2-yl)benzenesulfonamide]
PCE (positive cytotoxic effect: cell lines with growth inhibition >10% / total number of cell lines) (59 cancer cell lines): 5/59
GI% (PC-3 (Prostate Cancer)): 11%
GI% (HOP-92 (NSC Lung Cancer)): 11%
Mean % increase in paw weight ± SEM [1]: 78.1 ± 0.7%
% Inhibition of paw oedema from control group [1]: 57.7% and 57.7 ± 0.5%
GI% [2]: 11%
GI% [3]: 11%
GI% (UO-31 (Renal Cancer)): 17%

SMILES: Cc1ccc(NC(=O)c2ccc(CN3CCN(C)CC3)cc2)cc1Nc1nccc(-c2cccnc2)n1 [Imatinib]
PCE (positive cytotoxic effect: cell lines with growth inhibition >10% / total number of cell lines) (59 cancer cell lines): 20/59
GI% [4]: 17.1%
GI% (PC-3 (Prostate Cancer)): 10.6%
GI% (A498 (Renal Cancer)): 13.7%
GI% (HCT-116 (Colon Cancer)): 18.6%
GI% (T-47D (Breast Cancer)): 18.6%
GI% (MOLT-4 (Leukaemia)): 18.0%
GI% (PRMI-8226 (Leukaemia)): 12.6%
GI% [5]: 29.1%
GI% (SF-539 (CNS Cancer)): 24.5%
GI% (U251 (CNS Cancer)): 10.6%
GI% (SF-295 (CNS Cancer)): 15.1%
GI% (HT29 (Colon Cancer)): 47.1%
GI% (DU-145 (Prostate Cancer)): 14.4%
GI% (EKVX (NSC Lung Cancer)): 15.7%
GI% (HCT-15 (Colon Cancer)): 11.5%
GI% [6]: 11.2%
GI% [7]: 10.6%
GI% (SR (Leukaemia)): 14.6%
GI% (LOX IMVI (Melanoma)): 11.6%
